Source: PubChem BioAssay (NCI)
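The compound was tested at five concentrations on cells cultured in 96-well plates, with a 48-hour exposure period. TGI denotes the concentration required for complete inhibition of growth.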

How the values were obtained:
Assay in all cases: NCI-60 cell line screen, 48 h
HT29 colon = tested on: HT29 colon
OVCAR-8 ovarian = tested on: OVCAR-8 ovarian
MCF7 breast = tested on: MCF7 breast
ACHN renal = tested on: ACHN renal
SNB-19 CNS = tested on: SNB-19 CNS
IGROV1 ovarian = tested on: IGROV1 ovarian
TK-10 renal = tested on: TK-10 renal
M14 melanoma = tested on: M14 melanoma
MOLT-4 leukemia = tested on: MOLT-4 leukemia
EKVX NSCLC = tested on: EKVX NSCLC
SK-MEL-5 melanoma = tested on: SK-MEL-5 melanoma
T-47D breast = tested on: T-47D breast
MDA-MB-231 breast = tested on: MDA-MB-231 breast
HCT-15 colon = tested on: HCT-15 colon
MALME-3M melanoma = tested on: MALME-3M melanoma
HOP-92 NSCLC = tested on: HOP-92 NSCLC
SN12C renal = tested on: SN12C renal
SF-268 CNS = tested on: SF-268 CNS
HS 578T breast = tested on: HS 578T breast
CCRF-CEM leukemia = tested on: CCRF-CEM leukemia
RPMI-8226 leukemia = tested on: RPMI-8226 leukemia
UACC-62 melanoma = tested on: UACC-62 melanoma
NCI-H23 lung = tested on: NCI-H23 lung
KM12 colon = tested on: KM12 colon
A549 NSCLC = tested on: A549 NSCLC
RXF 393 renal = tested on: RXF 393 renal
SW-620 colon = tested on: SW-620 colon
DU-145 prostate = tested on: DU-145 prostate
SF-539 CNS = tested on: SF-539 CNS
NCI-H226 lung = tested on: NCI-H226 lung
PC-3 prostate = tested on: PC-3 prostate
SR leukemia = tested on: SR leukemia
OVCAR-4 ovarian = tested on: OVCAR-4 ovarian
SK-MEL-28 melanoma = tested on: SK-MEL-28 melanoma
HOP-62 NSCLC = tested on: HOP-62 NSCLC
SNB-75 CNS = tested on: SNB-75 CNS
786-0 renal = tested on: 786-0 renal
COLO 205 colon = tested on: COLO 205 colon
SF-295 CNS = tested on: SF-295 CNS
NCI-H522 lung = tested on: NCI-H522 lung
UACC-257 melanoma = tested on: UACC-257 melanoma
OVCAR-5 ovarian = tested on: OVCAR-5 ovarian
K-562 leukemia = tested on: K-562 leukemia
MDA-N = tested on: MDA-N
U251 CNS = tested on: U251 CNS
HCC-2998 colon = tested on: HCC-2998 colon
MDA-MB-435 = tested on: MDA-MB-435
OVCAR-3 ovarian = tested on: OVCAR-3 ovarian
NCI-H460 lung = tested on: NCI-H460 lung
BT-549 breast = tested on: BT-549 breast
HL-60(TB) leukemia = tested on: HL-60(TB) leukemia
HCT-116 colon = tested on: HCT-116 colon
NCI/ADR-RES ovarian = tested on: NCI/ADR-RES ovarian
CAKI-1 renal = tested on: CAKI-1 renal
LOX IMVI melanoma = tested on: LOX IMVI melanoma
SK-MEL-2 melanoma = tested on: SK-MEL-2 melanoma
SK-OV-3 ovarian = tested on: SK-OV-3 ovarian
A498 renal = tested on: A498 renal
UO-31 renal = tested on: UO-31 renal

C[C@H]1CCCCC[C@@H]2CC(=O)CC2C(=O)CCC(=O)O1 (stereo partly drawn)
TGI (HT29 colon): > 100 µM | TGI (OVCAR-8 ovarian): > 100 µM | TGI (MCF7 breast): > 100 µM | TGI (ACHN renal): > 100 µM | TGI (SNB-19 CNS): > 100 µM | TGI (IGROV1 ovarian): > 100 µM | TGI (TK-10 renal): > 100 µM | TGI (M14 melanoma): > 100 µM | TGI (MOLT-4 leukemia): > 100 µM | TGI (EKVX NSCLC): > 100 µM | TGI (SK-MEL-5 melanoma): > 100 µM | TGI (T-47D breast): > 100 µM | TGI (MDA-MB-231 breast): > 100 µM | TGI (HCT-15 colon): > 100 µM | TGI (MALME-3M melanoma): > 100 µM | TGI (HOP-92 NSCLC): > 100 µM | TGI (SN12C renal): > 100 µM | TGI (SF-268 CNS): > 100 µM | TGI (HS 578T breast): > 100 µM | TGI (CCRF-CEM leukemia): > 100 µM | TGI (RPMI-8226 leukemia): > 100 µM | TGI (UACC-62 melanoma): > 100 µM | TGI (NCI-H23 lung): > 100 µM | TGI (KM12 colon): > 100 µM | TGI (A549 NSCLC): > 100 µM | TGI (RXF 393 renal): > 100 µM | TGI (SW-620 colon): > 100 µM | TGI (DU-145 prostate): > 100 µM | TGI (SF-539 CNS): > 100 µM | TGI (NCI-H226 lung): > 100 µM | TGI (PC-3 prostate): > 100 µM | TGI (SR leukemia): > 100 µM | TGI (OVCAR-4 ovarian): > 100 µM | TGI (SK-MEL-28 melanoma): > 100 µM | TGI (HOP-62 NSCLC): > 100 µM | TGI (SNB-75 CNS): > 100 µM | TGI (786-0 renal): > 100 µM | TGI (COLO 205 colon): > 100 µM | TGI (SF-295 CNS): > 100 µM | TGI (NCI-H522 lung): > 100 µM | TGI (UACC-257 melanoma): > 100 µM | TGI (OVCAR-5 ovarian): > 100 µM | TGI (K-562 leukemia): > 100 µM | TGI (MDA-N): > 100 µM | TGI (U251 CNS): > 100 µM | TGI (HCC-2998 colon): > 100 µM | TGI (MDA-MB-435): > 100 µM | TGI (OVCAR-3 ovarian): > 100 µM | TGI (NCI-H460 lung): > 100 µM | TGI (BT-549 breast): > 100 µM | TGI (HL-60(TB) leukemia): > 100 µM | TGI (HCT-116 colon): > 100 µM | TGI (NCI/ADR-RES ovarian): > 100 µM

Nc1ccc2cc3[nH]c4cc(N)ccc4c3nc2c1
TGI (HT29 colon): 1.48 µM | TGI (OVCAR-8 ovarian): 1.69 µM | TGI (MCF7 breast): 1.7 µM | TGI (CAKI-1 renal): 0.636 µM | TGI (ACHN renal): 0.257 µM | TGI (SNB-19 CNS): 3.76 µM | TGI (TK-10 renal): 7.98 µM | TGI (M14 melanoma): 1.36 µM | TGI (MOLT-4 leukemia): 6.76 µM | TGI (EKVX NSCLC): 1.93 µM | TGI (SK-MEL-5 melanoma): 0.923 µM | TGI (T-47D breast): 4.33 µM | TGI (MDA-MB-231 breast): 2.09 µM | TGI (HCT-15 colon): 1.47 µM | TGI (HOP-92 NSCLC): 0.737 µM | TGI (SN12C renal): 1.17 µM | TGI (SF-268 CNS): 1.8 µM | TGI (HS 578T breast): 2.57 µM | TGI (LOX IMVI melanoma): 0.911 µM | TGI (RPMI-8226 leukemia): > 100 µM | TGI (UACC-62 melanoma): 0.708 µM | TGI (NCI-H23 lung): 0.893 µM | TGI (KM12 colon): 1.7 µM | TGI (A549 NSCLC): 3.38 µM | TGI (RXF 393 renal): 1.98 µM | TGI (SW-620 colon): 0.845 µM | TGI (DU-145 prostate): 2.4 µM | TGI (SF-539 CNS): 1.4 µM | TGI (NCI-H226 lung): 1.8 µM | TGI (PC-3 prostate): 1.49 µM | TGI (SR leukemia): 0.66 µM | TGI (OVCAR-4 ovarian): 3.02 µM | TGI (SK-MEL-28 melanoma): 0.317 µM | TGI (HOP-62 NSCLC): 1.13 µM | TGI (SNB-75 CNS): 1.33 µM | TGI (786-0 renal): 1.39 µM | TGI (COLO 205 colon): 1.27 µM | TGI (SF-295 CNS): 1.37 µM | TGI (NCI-H522 lung): 64.6 µM | TGI (UACC-257 melanoma): 0.761 µM | TGI (OVCAR-5 ovarian): 1.83 µM | TGI (SK-MEL-2 melanoma): 1.47 µM | TGI (K-562 leukemia): > 22.6 µM | TGI (MDA-N): 1.13 µM | TGI (U251 CNS): 2.37 µM | TGI (HCC-2998 colon): 0.976 µM | TGI (MDA-MB-435): 1.23 µM | TGI (OVCAR-3 ovarian): 2.69 µM | TGI (SK-OV-3 ovarian): 2.03 µM | TGI (NCI-H460 lung): 0.548 µM | TGI (BT-549 breast): 3.15 µM | TGI (A498 renal): 1.24 µM | TGI (HCT-116 colon): 0.456 µM | TGI (NCI/ADR-RES ovarian): 2.34 µM | TGI (UO-31 renal): 0.659 µM
